Experimental data as given in patent publication US20090162413A1 (priority 1998, published 2009).

Test: release of zotarolimus from 15 mm BiodivYsio drug delivery stents (Example 5)
Assay type: physicochemical
Conditions: 15 mm BiodivYsio stents
Protocol: To load the stents with drug, a solution of zotarolimus in ethanol at a concentration of 50 mg/ml was prepared and dispensed into twelve vials. Twelve individual polymer-coated stents were placed on fixtures designed to hold the stent in a vertical position and the stents were immersed vertically in the drug solution for five minutes. The stents and fixtures were removed from the vials and excess drug solution was blotted away by contacting the stents with an absorbent material. The stents were then allowed to dry in air for 30 minutes in an inverted vertical position.
The stents were removed from the fixtures, and each stent was placed into 50/50 acetonitrile/phosphate buffer (pH 5.1, 2.0 ml) and sonicated for one hour. The stents were removed from the solution and solutions were assayed for concentration of drug, which allowed calculation of the amount of drug originally on the stents. This method was independently shown to remove at least 95% of the drug from the stent coating. On average, the stents included 120±9 micrograms of drug.
The drug-loaded stents were placed on the fixtures and placed into 0.01 M phosphate buffer (pH=6.0, 1.9 ml) in individual vials. These samples were placed onto a Eberbach shaker set at low speed to provide back-and-forth agitation. To avoid approaching drug saturation in the buffer, the stents were transferred periodically to fresh buffer vials at the following points: 15, 30, 45, 60, 120, 135, 150, 165, 180, 240, 390 minutes. The dissolution buffer vials were assayed by HPLC for the drug concentration at the end of the drug release period studied. The data, represented as % cumulative release of the drug as a function of time, is shown in tabular form below (Table 7): […]

## CO[C@H]1C[C@@H]2CC[C@@H](C)[C@@](O)(O2)C(=O)C(=O)N2CCCC[C@H]2C(=O)O[C@H]([C@H](C)C[C@@H]2CC[C@H](n3cnnn3)[C@H](OC)C2)CC(=O)[C@H](C)/C=C(\C)[C@@H](O)[C@@H](OC)C(=O)[C@H](C)C[C@H](C)/C=C/C=C/C=C/1C [zotarolimus]
0.01 M phosphate buffer pH 6.0, 15 min
  % Cumulative Release of Drug: 0.3%
0.01 M phosphate buffer pH 6.0, 30 min
  % Cumulative Release of Drug: 1.1%
0.01 M phosphate buffer pH 6.0, 45 min
  % Cumulative Release of Drug: 2.1%
0.01 M phosphate buffer pH 6.0, 60 min
  % Cumulative Release of Drug: 3.2%
0.01 M phosphate buffer pH 6.0, 120 min
  % Cumulative Release of Drug: 4.3%
0.01 M phosphate buffer pH 6.0, 135 min
  % Cumulative Release of Drug: 5.9%
0.01 M phosphate buffer pH 6.0, 150 min
  % Cumulative Release of Drug: 6.3%
0.01 M phosphate buffer pH 6.0, 165 min
  % Cumulative Release of Drug: 6.8%
0.01 M phosphate buffer pH 6.0, 180 min
  % Cumulative Release of Drug: 7.4%
0.01 M phosphate buffer pH 6.0, 240 min
  % Cumulative Release of Drug: 10.8%
0.01 M phosphate buffer pH 6.0, 390 min
  % Cumulative Release of Drug: 13.2%
